Test results: patent US9708314B2, “Heterocyclic amide compound” (NISSAN CHEMICAL INDUSTRIES, LTD., priority 2013, dated 2017)

Assays:
Format in all cases: in vivo
[1] = test system: Beta vulgaris ssp. vulgaris; test: Test Example 4: effect on crop by application to foliage (diluvial soil, plastic box); conditions: Application herbicide amount 320 g/ha; effect on crop
Outline: (§1)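 Emulsion-formulated compound, diluted to a predetermined g/ha dose, applied by small sprayer to leaves and stems of 14-day-old seedlings grown in sterilized diluvial soil. Effect rated on 0–5 herbicidal-ratio scale three weeks on.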

Glycine max = test: as above; conditions: Application herbicide amount 320 g/ha; effect on crop
Outline: as §1

Brassica campestris L. = test: as above; conditions: Application herbicide amount 320 g/ha; effect on crop
Outline: as §1

Zea mays = test: as above; conditions: Application herbicide amount 320 g/ha; effect on crop
Outline: as §1

[2] = test system: directly sowed Oryza sativa; test: as above; conditions: Application herbicide amount 320 g/ha; effect on crop
Outline: as §1

Leptochloa chinensis = test: Test Example 3: herbicidal effect by application to foliage (Wagner pot, water depth 0.1-0.5 cm); conditions: Nineteenth Table; application to foliage; application herbicide amount 320 g/ha
Outline: (§2)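 Plants are raised 14 days from seed in flooded-surface Wagner pots at 25–30 °C, sprayed on stems and leaves with diluted emulsion at a predetermined rate, and rated three weeks on using a 0–5 herbicidal-ratio scale (5 ≥90%).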

[3] = test system: Echinochloa crus-galli var. crus-galli; test: as above; conditions: Nineteenth Table; application to foliage; application herbicide amount 320 g/ha
Outline: as §2

Cyperus difformis = test: as above; conditions: Nineteenth Table; application to foliage; application herbicide amount 320 g/ha
Outline: as §2

[4] = test system: transplanted Oryza sativa; test: Test Example 1: effect on crop, application before weed generation in submerged conditions; conditions: Application herbicide amount 320 g/ha; Seventeenth Table
Outline: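 Rating, on a six-step scale from almost no effect (0) to almost completely withered (5), was made three weeks after pre-emergence treatment. Treatment was surface application to flooded pots at g/ha rates, with plants kept at 25° C. to 30° C.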

SMILES | f [1] | c (Glycine max) | g (Brassica campestris L.) | b (Zea mays) | d [2] | D (herbicidal effect grade) (Leptochloa chinensis) | H (herbicidal effect grade) [3] | E (herbicidal effect grade) (Cyperus difformis) | a: transplanted Oryza sativa (effect on crop grade) [4]
Cc1nnc(NC(=O)c2ccc(C(F)(F)F)n3c(-c4cc(Cl)cc(Cl)c4)nnc23)o1 [1-071] | 2 (Herbicidal ratio of 20% or more and less than 40%) | 0 (Herbicidal ratio of 5% or less (almost no effect)) | 0 (Herbicidal ratio of 5% or less (almost no effect)) | 0 (Herbicidal ratio of 5% or less (almost no effect)) | 0 (Herbicidal ratio of 5% or less (almost no effect)) | 3 (Herbicidal ratio of 40% or more and less than 70%) | 0 (Herbicidal ratio of 5% or less (almost no effect)) | 5 (Herbicidal ratio of 90% or more (almost completely withered)) | 0 (Herbicidal ratio of 5% or less (almost no effect))
COCC[S+]([O-])c1nnc2c(C(=O)Nc3nnc(C)o3)ccc(C(F)(F)F)n12 (stereo not drawn) [1-073] | 5 (Herbicidal ratio of 90% or more (almost completely withered)) | 0 (Herbicidal ratio of 5% or less (almost no effect)) | 3 (Herbicidal ratio of 40% or more and less than 70%) | 5 (Herbicidal ratio of 90% or more (almost completely withered)) | 4 (Herbicidal ratio of 70% or more and less than 90%) | 5 (Herbicidal ratio of 90% or more (almost completely withered)) | 5 (Herbicidal ratio of 90% or more (almost completely withered)) | 5 (Herbicidal ratio of 90% or more (almost completely withered)) | 3 (Herbicidal ratio of 40% or more and less than 70%)
C=CC[S+]([O-])c1nnc2c(C(=O)Nc3nnc(C)o3)ccc(C(F)(F)F)n12 (stereo not drawn) [1-074] | 4 (Herbicidal ratio of 70% or more and less than 90%) | 0 (Herbicidal ratio of 5% or less (almost no effect)) | 3 (Herbicidal ratio of 40% or more and less than 70%) | 0 (Herbicidal ratio of 5% or less (almost no effect)) | 3 (Herbicidal ratio of 40% or more and less than 70%) | 4 (Herbicidal ratio of 70% or more and less than 90%) | 5 (Herbicidal ratio of 90% or more (almost completely withered)) | 3 (Herbicidal ratio of 40% or more and less than 70%) | 0 (Herbicidal ratio of 5% or less (almost no effect))
Cc1nnc(NC(=O)c2cc(C)c(C(F)(F)F)n3c(C(C)C)nnc23)o1 [1-075] | 1 (Herbicidal ratio of 5% or more and less than 20%) | 0 (Herbicidal ratio of 5% or less (almost no effect)) | 1 (Herbicidal ratio of 5% or more and less than 20%) | 0 (Herbicidal ratio of 5% or less (almost no effect)) | 0 (Herbicidal ratio of 5% or less (almost no effect)) | 4 (Herbicidal ratio of 70% or more and less than 90%) | 5 (Herbicidal ratio of 90% or more (almost completely withered)) | 4 (Herbicidal ratio of 70% or more and less than 90%) | 0 (Herbicidal ratio of 5% or less (almost no effect))
Cc1nnc(NC(=O)c2ccc(C(F)(F)F)n3c(N(C)C)nnc23)o1 [1-076] | 5 (Herbicidal ratio of 90% or more (almost completely withered)) | 3 (Herbicidal ratio of 40% or more and less than 70%) | 4 (Herbicidal ratio of 70% or more and less than 90%) | 0 (Herbicidal ratio of 5% or less (almost no effect)) | 3 (Herbicidal ratio of 40% or more and less than 70%) | 5 (Herbicidal ratio of 90% or more (almost completely withered)) | 5 (Herbicidal ratio of 90% or more (almost completely withered)) | 5 (Herbicidal ratio of 90% or more (almost completely withered)) | 3 (Herbicidal ratio of 40% or more and less than 70%)
C#CC[S+]([O-])c1nnc2c(C(=O)Nc3nnc(C)o3)ccc(C(F)(F)F)n12 (stereo not drawn) [1-077] | 3 (Herbicidal ratio of 40% or more and less than 70%) | 0 (Herbicidal ratio of 5% or less (almost no effect)) | 3 (Herbicidal ratio of 40% or more and less than 70%) | 0 (Herbicidal ratio of 5% or less (almost no effect)) | 3 (Herbicidal ratio of 40% or more and less than 70%) | 4 (Herbicidal ratio of 70% or more and less than 90%) | 5 (Herbicidal ratio of 90% or more (almost completely withered)) | 3 (Herbicidal ratio of 40% or more and less than 70%) | 0 (Herbicidal ratio of 5% or less (almost no effect))
CSC(C)c1nnc2c(C(=O)Nc3nnc(C)o3)ccc(C(F)(F)F)n12 (stereo not drawn) [1-078] | 5 (Herbicidal ratio of 90% or more (almost completely withered)) | 4 (Herbicidal ratio of 70% or more and less than 90%) | 4 (Herbicidal ratio of 70% or more and less than 90%) | 4 (Herbicidal ratio of 70% or more and less than 90%) | 4 (Herbicidal ratio of 70% or more and less than 90%) | 5 (Herbicidal ratio of 90% or more (almost completely withered)) | 5 (Herbicidal ratio of 90% or more (almost completely withered)) | 5 (Herbicidal ratio of 90% or more (almost completely withered)) | 4 (Herbicidal ratio of 70% or more and less than 90%)
Cc1nnc(NC(=O)c2ccc(C(F)(F)F)n3c(C(C)[S+](C)[O-])nnc23)o1 (stereo not drawn) [1-079] | 5 (Herbicidal ratio of 90% or more (almost completely withered)) | 1 (Herbicidal ratio of 5% or more and less than 20%) | 5 (Herbicidal ratio of 90% or more (almost completely withered)) | 4 (Herbicidal ratio of 70% or more and less than 90%) | 5 (Herbicidal ratio of 90% or more (almost completely withered)) | 5 (Herbicidal ratio of 90% or more (almost completely withered)) | 5 (Herbicidal ratio of 90% or more (almost completely withered)) | 5 (Herbicidal ratio of 90% or more (almost completely withered)) | 4 (Herbicidal ratio of 70% or more and less than 90%)
Cc1nnc(NC(=O)c2ccc(C(F)(F)F)n3c(C(C)S(C)(=O)=O)nnc23)o1 (stereo not drawn) [1-080] | 5 (Herbicidal ratio of 90% or more (almost completely withered)) | 4 (Herbicidal ratio of 70% or more and less than 90%) | 5 (Herbicidal ratio of 90% or more (almost completely withered)) | 4 (Herbicidal ratio of 70% or more and less than 90%) | 5 (Herbicidal ratio of 90% or more (almost completely withered)) | 5 (Herbicidal ratio of 90% or more (almost completely withered)) | 5 (Herbicidal ratio of 90% or more (almost completely withered)) | 5 (Herbicidal ratio of 90% or more (almost completely withered)) | 4 (Herbicidal ratio of 70% or more and less than 90%)
CSCCc1nnc2c(C(=O)Nc3nnc(C)o3)ccc(C(F)(F)F)n12 [1-083] | 5 (Herbicidal ratio of 90% or more (almost completely withered)) | 1 (Herbicidal ratio of 5% or more and less than 20%) | 4 (Herbicidal ratio of 70% or more and less than 90%) | 1 (Herbicidal ratio of 5% or more and less than 20%) | 4 (Herbicidal ratio of 70% or more and less than 90%) | 5 (Herbicidal ratio of 90% or more (almost completely withered)) | 5 (Herbicidal ratio of 90% or more (almost completely withered)) | 5 (Herbicidal ratio of 90% or more (almost completely withered)) | 0 (Herbicidal ratio of 5% or less (almost no effect))
Cc1nnc(NC(=O)c2ccc(C(F)(F)F)n3c(CC[S+](C)[O-])nnc23)o1 (stereo not drawn) [1-084] | 4 (Herbicidal ratio of 70% or more and less than 90%) | 1 (Herbicidal ratio of 5% or more and less than 20%) | 4 (Herbicidal ratio of 70% or more and less than 90%) | 3 (Herbicidal ratio of 40% or more and less than 70%) | 4 (Herbicidal ratio of 70% or more and less than 90%) | 5 (Herbicidal ratio of 90% or more (almost completely withered)) | 5 (Herbicidal ratio of 90% or more (almost completely withered)) | 5 (Herbicidal ratio of 90% or more (almost completely withered)) | 0 (Herbicidal ratio of 5% or less (almost no effect))
